Results: the METLIN SMRT retention time set (Domingo-Almenara et al. 2019)

Assay: gradient 5% acetonitrile 3 min, to 50% in 2 min, to 85% in 15 min, held 3 min, 100 µL/min
Conditions: column: Zorbax Extend-C18 2.1 x 50 mm; eluents: water / acetonitrile, 0.1% formic acid
Summary of the method: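 Data were gathered over 3 months by HPLC coupled to a quadrupole time-of-flight mass spectrometer, operated in positive and negative ionization mode. Mixtures of ~100 pure standards ran on a Zorbax Extend-C18 column (2.1 × 50 mm, 1.8 μm) at 100 μL/min, with water and acetonitrile each containing 0.1% formic acid and dead and dwell volumes of 40 μL and 900 μL. Retention time was read from adduct peaks picked by computer and checked manually.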

| RP-LC retention time [s] | Structure (SMILES) |
| --- | --- |
| 950 | O=C(Cc1c(F)cccc1Cl)Nc1nc2c(s1)CN(S(=O)(=O)c1ccccc1)CC2 |
| 652 | CCOC(=O)c1cnc(N2CCN(c3cccc(Cl)c3)CC2)c2ccccc12 |
| 850 | COc1cccc(Oc2nccn3c(=O)n(CC(=O)Nc4ccccc4C(F)(F)F)nc23)c1 |
| 970 | Cc1ccc(NS(=O)(=O)c2ccc3c(c2)C(=O)N(C)c2ncccc2O3)cc1C |
| 608 | CCc1ccc2nc(NC3=NCN(Cc4cccnc4)CN3)nc(C)c2c1 |
| 873 | O=C(NC1CCCC1)c1ccc2c(c1)N(Cc1ccccc1)C(=O)CO2 |
| 938 | Cc1cc(C)cc(N2CCC(NC(=O)Nc3cccc(F)c3C)C2=O)c1 (configuration not stated) |
| 932 | CCc1ccc(CNC(=O)C2CC(=O)N(c3ccc4c(c3)CCN4C(C)=O)C2)cc1 (configuration not stated) |
| 912 | Cc1ccc2c(c1)C1CC(C)(O2)N(c2cccc(C(=O)O)c2)C(=O)N1 (configuration not stated) |
| 759 | Cc1ccc(Cc2nc(-c3ccc(-n4ccnc4)nc3)no2)cc1 |
| 674 | O=C(NCC(=O)N1CC[C@H](NC2CCC(O)(c3ccc(-c4ncccn4)cn3)CC2)C1)c1cccc(C(F)(F)F)c1 (some centres not stated) |
| 637 | COC[C@@H]1CN(S(=O)(=O)Cc2ccccc2)C[C@H]1c1ccncc1 |
| 742 | O=S(=O)(Nc1cccn2ncnc12)c1ccccc1Cl |
| 671 | O=C(NCC(c1cccnc1)c1c[nH]c2ccccc12)Nc1cccc(F)c1 (configuration not stated) |
| 637 | CCNC(=O)c1cn(-c2ccc(SCC(=O)Nc3ccc4c(c3)OCCO4)nn2)cn1 |
| 640 | COCCN1C(=O)c2ccccc2C(C(=O)NCCCN2CCC(C)CC2)C1c1cccs1 (configuration not stated) |
| 951 | CCOC(=O)C1CCN(C(=O)c2cc3sc(C)cc3n2C)CC1 |
| 723 | O=C(Nc1cccc(Cl)c1F)N1CCCC(Cn2c(C3CC3)nc3cccnc32)C1 (configuration not stated) |
| 783 | COc1ccccc1-n1ccn2cc(-c3ccc(F)cc3)nc2c1=O |
| 979 | CC(C)(C)NC(=O)c1ccc2c(c1)CCCN2S(=O)(=O)c1ccccc1 |
| 625 | O=C(Nc1ccccc1)N1CCN(c2cnn3c(C4CC4)nnc3c2)CC1 |
| 719 | CSc1ccc(-c2nc3cnccn3c2Nc2ccc(C(=O)O)cc2)cc1 |

| RP-LC retention time [s] | Structure (SMILES) |
| --- | --- |
| 697 | COc1cccc2cc(C(=O)NCC3CCN(C(=O)c4snnc4C)CC3)oc12 |
| 881 | CCOC(=O)C1=C(N)Oc2c(c(=O)[nH]c3ccc(C)cc23)C1c1ccc(OC)cc1 (configuration not stated) |
| 894 | O=C(NCc1nc(-c2ccccc2)no1)c1csc(-n2cccc2)n1 |
| 851 | O=C(CSc1cnc2ccccc2n1)N1CCN(c2ccc(F)cc2)CC1 |
| 780 | CN(C)C(=O)c1ccc2c(c1)n(Cc1ccc(F)cc1)c(=O)c1ccnn12 |
| 1240 | CCOC(=O)c1cc(C2CC2)nc2c1c(=O)n(Cc1ccccc1C)c(=O)n2C |
| 630 | CCC1CN(C(=O)N2CCC(C(=O)NCCN3CCOCC3)CC2)c2ccccc2O1 (configuration not stated) |
| 692 | CCNC(=O)C1CCCN(c2nc3ncn(CC(=O)NCCC4=CCCCC4)c(=O)c3s2)C1 (configuration not stated) |
| 686 | Cn1nc(C(=O)N2CCCC(C(=O)N3CCCC3)C2)c2c1CCN(C(=O)c1c(F)cccc1F)C2 (configuration not stated) |
| 809 | CCOc1ccc2nc(Nc3ncc4c(n3)CC(c3ccc(OC)cc3)CC4=O)nc(C)c2c1 (configuration not stated) |
| 1070 | O=C(Cn1cccc1-c1nc(-c2ccc3c(c2)OCO3)no1)Nc1ccc(Cl)cc1 |
| 660 | CC(NC(=O)C1CCN(c2cncnc2N2CCCC2)CC1)c1ccccc1 (configuration not stated) |
| 715 | CN1CCN(C(=O)Cn2cccc2-c2nc(-c3ccc(Cl)cc3)cs2)CC1 |
| 954 | CCn1cc(-c2ccc(Cl)cc2)cc1C(=O)NCCOC |
| 802 | Cn1cc(-c2cc3n(n2)CCC(=O)N3CCCC(=O)N2CCCCC2)c2ccccc21 |
| 1010 | Cc1ccc(-c2ccc3nn(Cc4cccc(Br)c4)c(=O)n3n2)cc1C |
| 589 | O=C(Nc1cccnc1)c1ccc(Cl)c(S(=O)(=O)N2CCOCC2)c1 |
| 880 | COc1ccccc1-c1noc(Cn2c(=O)n(-c3ccccc3F)c(=O)c3sccc32)n1 |
| 670 | CNC(=O)[C@@H]1C[C@H](Oc2ccccc2)CN1C(=O)c1ccco1 |
| 920 | O=C(Nc1cccc(OCc2nnc(-c3ccc(F)cc3)o2)c1)c1ccsc1 |
| 700 | O=C(CSc1ncccn1)NCc1cc(-c2ccc(F)cc2)on1 |
| 656 | CCCS(=O)(=O)N1CCC(F)(F)C(COCc2cccnc2)C1 (configuration not stated) |

| RP-LC retention time [s] | Structure (SMILES) |
| --- | --- |
| 940 | COc1ccc(Cl)cc1NC(=O)CCc1c(C)nn(-c2cc(N(C)C)ncn2)c1C |
| 998 | COC(=O)c1ccc2c(=O)n(-c3cccc(Cl)c3)c(N3CCOCC3)nc2c1 |
| 1000 | O=C(NCc1cccc(C(F)(F)F)c1)c1csc(C(=O)NC2CCCC2)n1 |
| 710 | COc1ccc(OC)c(CNC(=O)C2CCCN(c3cnc4nccnc4c3)C2)c1 (configuration not stated) |
| 545 | CN1CCC(N2CCN(S(=O)(=O)c3ccccc3F)CC2)C1=O (configuration not stated) |
| 1120 | Cc1cc(C)c(NS(=O)(=O)c2c(C)cc(C)cc2C)c(C)c1 |
| 881 | CC(Cc1cccs1)NC(=O)NCc1cccc2ccccc12 (configuration not stated) |
| 784 | COc1ccc(-c2c(C)noc2NC(C)=O)cc1S(=O)(=O)NCc1ccc(C)cc1 |
| 1040 | O=C(Nc1ccc(Br)cc1F)C1CCCN(S(=O)(=O)Cc2ccc(F)cc2)C1 (configuration not stated) |
| 670 | COCc1nnc(NC(=O)C2CCN(C(=O)c3ccccc3Cl)CC2)s1 |
| 958 | CCc1ccccc1NC(=O)N1CC=C(c2cn(C(C)C)c3ncccc23)CC1 |
| 880 | COC(=O)c1ccc2c(c1)nnn2Cc1cccc(OC)c1 |
| 621 | CCOC(=O)N1CCC(NC(=O)C2CCCN(c3cc(=O)n(C)c(=O)n3C)C2)CC1 (configuration not stated) |
| 618 | CN(C)C(=O)c1n[nH]c2c1CN(C(=O)c1ccccc1F)CC2 |
| 1010 | CCc1ccccc1NC(=O)C1(C)Oc2cccnc2N(C(C)C)C1=O (configuration not stated) |
| 1110 | CCOc1ccc(-c2noc(Cn3c(=O)n(Cc4ccccc4)c(=O)c4sccc43)n2)cc1OC |
| 1150 | Cn1nc(-c2nnc(-c3ccccc3)o2)c2c1CCN(S(=O)(=O)c1ccc(C(C)(C)C)cc1)C2 |
| 575 | NC(=O)[C@@H]1C[C@@H](O)CN1C1CCN(C(=O)CC2=CCCCC2)CC1 |
| 964 | O=C(O)c1cccc(-c2noc(-c3ccccc3F)n2)c1 |
| 649 | CS(=O)(=O)c1ccc2nc(NC(=O)C3COCC(=O)N3Cc3ccccc3)sc2c1 (configuration not stated) |
| 624 | COc1ccc(NC(=O)CSc2ccc(N3CCCC(C(=O)NC4CC4)C3)nn2)cc1Cl (configuration not stated) |
| 651 | COc1ccc(CC(=O)N2C[C@@H]3C[C@H](NS(C)(=O)=O)[C@H]2C3)cc1Cl |

| RP-LC retention time [s] | Structure (SMILES) |
| --- | --- |
| 925 | CCCn1ccc2sc(C)c(C(=O)NCc3ccc(F)cc3F)c2c1=O |
| 973 | COc1ccc(N2CC(c3nc(-c4cccc(Cl)c4)no3)CC2=O)cc1 (configuration not stated) |
| 966 | O=c1ccc(N2CCCN(S(=O)(=O)c3ccc(F)cc3F)CC2)nn1-c1ccc(Cl)cc1 |
| 1230 | COc1ccc(OC)c(-c2csc(-c3nnn(-c4ccc(C)c(C)c4)c3N)n2)c1 |
| 872 | COc1ccc(CNC(=O)C2(C)CCN(C(=O)Nc3ccc(F)c(Cl)c3)CC2)cc1 |
| 1020 | Cc1ccc(C)c(N2CCN(C(=O)c3[nH]c(C)c(S(=O)(=O)N4CCCC4)c3C)CC2)c1 |
| 620 | CCn1cnc2ccc(-c3noc(CNC(=O)c4ccccc4)n3)cc21 |
| 765 | CCc1ccc(CNC(=O)Cn2cnc3nc4c(cc3c2=O)CCCC4)cc1 |
| 667 | Nc1nc(SCC(=O)Nc2cccc(-c3nc4ccccc4s3)c2)n[nH]1 |
| 880 | O=C(NCCOc1cccc(C(F)(F)F)c1)C1CCCC1 |
| 710 | CC1=CC2(C)NC(=O)C(C)C12 (configuration not stated) |
| 618 | Cc1c(N2CCC(C(=O)N3CCN(c4ccccn4)CC3)CC2)c(=O)n(C)c(=O)n1-c1ccccc1 |
| 583 | COc1ccc(C2=NC3(CCN(C)CC3)NC(c3cccc(OC)c3O)C2)cc1 (configuration not stated) |
| 932 | COc1ccc(-c2noc(C3CC(=O)N(c4ccc(C)c(C)c4)C3)n2)c(OC)c1 (configuration not stated) |
| 845 | CCn1cc(C(=O)Nc2cccc(F)c2)c(S(=O)(=O)N2CCSCC2)n1 |
| 659 | Cc1cccc(S(=O)(=O)Nc2ccc(-c3cn4ccc(C)nc4n3)cc2)c1 |
| 1200 | CC(C)Oc1ccc(-c2noc(CN3C(=O)C(C)Oc4ccccc43)n2)cc1 (configuration not stated) |
| 1090 | COC(=O)c1ccc2c(=O)n(-c3cccc(Cl)c3)c(N3CCSCC3)nc2c1 |
| 879 | CCn1nccc1C(=O)Nc1cc(-c2cc3c(OC)cccc3n2CC)[nH]n1 |
| 662 | O=C(O)C1CCN(C(=O)CCc2c[nH]c3ccccc23)CC1 |

| Structure (SMILES) | RP-LC retention time [s] |
| --- | --- |
| COc1ccc2c(c1)C1(CCN(C(=O)c3ccc(OC)c(OC)c3)C1)C(=O)N2 (configuration not stated) | 674 |
